Read-outs that look alike come from different tables or passages of the source. Square brackets hold non-standard residues; d marks the D form. Peptide text beside a SMILES is read from it. αMeF = C[C@](N)(Cc1ccccc1)C(=O)O; αMeK = C[C@](N)(CCCCN)C(=O)O; αMeS = C[C@](N)(CO)C(=O)O; Aib = CC(C)(N)C(=O)O
Target: T1, human GLP-1 receptor (GLP-1R) (Homo sapiens, UniProt P43220)
T1 construct: expressed in transfected cells; host or cells: HEK293 cells or CHO cells
Assay: cAMP assay, human GLP-1R cells
Type: cell-based
Conditions: cAMP activity
Protocol: Sample dilutions are made in duplicate.
A frozen cryo-vial of cells expressing the receptor of interest is thawed rapidly in a water-bath, transferred to pre-warmed assay buffer and spun at 240×g for 5 minutes. Cells are re-suspended in assay buffer at a batch-dependent optimized concentration (e.g. hGCGR cells at 2×10^5 cells/ml, hGLP-1R and hGIPR cells at 1×10^5 cells/ml).
To this, 5 μL cell suspension is added and the plates incubated at room temperature for 30 minutes.
cAMP levels are measured using a commercially available cAMP dynamic 2 HTRF kit (Cisbio, Cat #62AM4PEJ), following the two step protocol as per manufacturer's recommendations. In brief; anti-cAMP cryptate (donor fluorophore) and cAMP-d2 (acceptor fluorophore) are made up separately by diluting each 1/20 in conjugate & lysis buffer provided in the kit. 5 μL anti-cAMP cryptate is added to wells of the assay plate, and 5 μL cAMP-d2 is added to wells except non-specific binding (NSB) wells, to which conjugate and lysis buffer are added. […] EC50 values of the synthetic peptides determined in cAMP assays are then determined.
Data is transformed to % Delta F as described in the manufacturer's guidelines and analyzed by 4-parameter logistic fit to determine EC50 values. […] To compare the balance of activities at the GLP-1R and GCGR between different peptides and across different conditions, these can be correlated, where the EC50's are related to those of comparator peptides.

[1] = mean of n1 and n2, read-out: Mean pM GLP-1R

T1 sequence (P43220 24-463): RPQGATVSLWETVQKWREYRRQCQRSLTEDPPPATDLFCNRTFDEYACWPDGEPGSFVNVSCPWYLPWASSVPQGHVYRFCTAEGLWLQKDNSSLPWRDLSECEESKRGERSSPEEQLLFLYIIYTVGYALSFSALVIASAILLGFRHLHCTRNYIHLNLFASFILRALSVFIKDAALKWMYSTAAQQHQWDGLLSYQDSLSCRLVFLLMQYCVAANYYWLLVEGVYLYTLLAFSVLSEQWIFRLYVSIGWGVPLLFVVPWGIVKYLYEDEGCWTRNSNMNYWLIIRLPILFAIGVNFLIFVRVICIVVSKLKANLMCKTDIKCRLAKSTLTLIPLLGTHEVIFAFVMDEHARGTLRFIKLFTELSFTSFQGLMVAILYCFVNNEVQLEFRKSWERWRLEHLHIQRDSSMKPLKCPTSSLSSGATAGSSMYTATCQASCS

SMILES	EC50 [1] [pM]	EC50 (second determination (n2), read-out: Primary assay EC50 GLP-1R n2) [pM]
CC[C@H](C)[C@H](NC(=O)[C@H](Cc1ccccc1)NC(=O)[C@H](CCC(=O)O)NC(=O)[C@H](CCCCN)NC(=O)[C@H](C)NC(=O)[C@H](C)NC(=O)[C@H](CCC(N)=O)NC(=O)CNC(=O)[C@H](CCC(=O)O)NC(=O)[C@H](CC(C)C)NC(=O)[C@H](Cc1ccc(O)cc1)NC(=O)[C@H](CO)NC(=O)[C@H](CO)NC(=O)[C@@H](NC(=O)[C@H](CC(=O)O)NC(=O)[C@H](CO)NC(=O)[C@@H](NC(=O)[C@H](Cc1ccccc1)NC(=O)[C@@H](NC(=O)CNC(=O)[C@H](CCC(=O)O)NC(=O)C(C)(C)NC(=O)[C@@H](N)Cc1c[nH]cn1)[C@@H](C)O)[C@@H](C)O)C(C)C)C(=O)N[C@@H](C)C(=O)N[C@@H](Cc1c[nH]c2ccccc12)C(=O)N[C@@H](CC(C)C)C(=O)N[C@H](C(=O)N[C@@H](CCCCN)C(=O)NCC(=O)N[C@@H](CCCNC(=N)N)C(=O)N[C@@H](CCCCNC(=O)COCCOCCNC(=O)COCCOCCNC(=O)CC[C@H](NC(=O)CCCCCCCCCCCCCCCCC(=O)O)C(=O)O)C(N)=O)C(C)C [compound 6]	5.1	–
CC[C@H](C)[C@H](NC(=O)[C@](C)(Cc1ccccc1)NC(=O)[C@H](CCC(=O)O)NC(=O)[C@](C)(CCCCN)NC(=O)[C@H](C)NC(=O)[C@H](C)NC(=O)[C@H](CCC(=O)O)NC(=O)CNC(=O)[C@H](CCC(=O)O)NC(=O)[C@H](CC(C)C)NC(=O)[C@](C)(Cc1ccccc1)NC(=O)[C@H](CO)NC(=O)[C@H](CO)NC(=O)[C@@H](NC(=O)[C@H](CCC(=O)O)NC(=O)[C@H](CO)NC(=O)[C@H](CO)NC(=O)[C@](C)(Cc1ccccc1)NC(=O)[C@H](CO)NC(=O)CNC(=O)[C@H](CCC(=O)O)NC(=O)C(C)(C)NC(=O)[C@@H](N)Cc1c[nH]cn1)C(C)C)C(=O)N[C@@H](C)C(=O)N[C@@](C)(Cc1ccccc1)C(=O)N[C@H](C(=O)N[C@H](C(=O)N[C@@](C)(CCCCN)C(=O)NCC(=O)NCC(N)=O)C(C)C)C(C)C [compound 9] (H-H[Aib]EGS[αMeF]SSEVSS[αMeF]LEGEAA[αMeK]E[αMeF]IA[αMeF]VV[αMeK]GG-NH2; N-terminus assumed)	1200	–
CC[C@H](C)[C@H](NC(=O)[C@](C)(Cc1ccccc1)NC(=O)[C@H](CCC(=O)O)NC(=O)[C@](C)(CCCCN)NC(=O)[C@H](C)NC(=O)[C@H](C)NC(=O)[C@H](CCC(=O)O)NC(=O)CNC(=O)[C@H](CCC(=O)O)NC(=O)[C@@H](NC(=O)[C@](C)(Cc1ccccc1)NC(=O)[C@H](CO)NC(=O)[C@H](CO)NC(=O)[C@@H](NC(=O)[C@H](CC(=O)O)NC(=O)[C@H](CO)NC(=O)[C@@H](NC(=O)[C@](C)(Cc1ccccc1)NC(=O)[C@H](CO)NC(=O)CNC(=O)[C@H](CCC(=O)O)NC(=O)C(C)(C)NC(=O)[C@@H](N)Cc1c[nH]cn1)[C@@H](C)O)C(C)C)C(C)C)C(=O)N[C@@H](C)C(=O)N[C@@](C)(Cc1ccccc1)C(=O)N[C@H](C(=O)N[C@H](C(=O)N[C@@](C)(CCCCN)C(=O)NCC(=O)NCC(N)=O)C(C)C)C(C)C [compound 10] (H-H[Aib]EGS[αMeF]TSDVSS[αMeF]VEGEAA[αMeK]E[αMeF]IA[αMeF]VV[αMeK]GG-NH2)	90	–
CC(C)[C@H](NC(=O)[C@H](CCC(=O)O)NC(=O)[C@H](CO)NC(=O)[C@H](CO)NC(=O)[C@](C)(Cc1ccccc1)NC(=O)[C@H](CO)NC(=O)CNC(=O)[C@H](CCC(=O)O)NC(=O)C(C)(C)NC(=O)[C@@H](N)Cc1c[nH]cn1)C(=O)N[C@@H](CO)C(=O)N[C@@H](CO)C(=O)N[C@@](C)(Cc1ccccc1)C(=O)N[C@H](C(=O)N[C@@H](CCC(=O)O)C(=O)NCC(=O)N[C@@H](CCC(=O)O)C(=O)N[C@@H](C)C(=O)N[C@@H](C)C(=O)N[C@@](C)(CCCCN)C(=O)N[C@@H](CCC(=O)O)C(=O)N[C@@](C)(Cc1ccccc1)C(=O)N[C@H](C(=O)N[C@@H](C)C(=O)N[C@@](C)(Cc1ccccc1)C(=O)N[C@H](C(=O)N[C@H](C(=O)N[C@@](C)(CCCCN)C(=O)NCC(=O)NCC(N)=O)C(C)C)C(C)C)C(C)C)C(C)C [compound 12] (H-H[Aib]EGS[αMeF]SSEVSS[αMeF]VEGEAA[αMeK]E[αMeF]VA[αMeF]VV[αMeK]GG-NH2; N-terminus assumed)	2100	–
CC[C@H](C)[C@H](NC(=O)[C@H](Cc1ccccc1)NC(=O)[C@H](CCC(=O)O)NC(=O)[C@H](CCCCN)NC(=O)[C@H](C)NC(=O)[C@H](C)NC(=O)[C@H](CCC(N)=O)NC(=O)CNC(=O)[C@H](CCC(=O)O)NC(=O)[C@H](CC(C)C)NC(=O)[C@H](Cc1ccc(O)cc1)NC(=O)[C@H](CO)NC(=O)C(C)(C)NC(=O)[C@@H](NC(=O)[C@H](CC(=O)O)NC(=O)[C@H](CO)NC(=O)[C@@H](NC(=O)[C@H](Cc1ccccc1)NC(=O)[C@@H](NC(=O)CNC(=O)[C@H](CCC(=O)O)NC(=O)C(C)(C)NC(=O)[C@@H](N)Cc1c[nH]cn1)[C@@H](C)O)[C@@H](C)O)C(C)C)C(=O)N[C@@H](C)C(=O)N[C@@H](Cc1c[nH]c2ccccc12)C(=O)N[C@@H](CC(C)C)C(=O)N[C@H](C(=O)N[C@@H](CCCCN)C(=O)NCC(=O)N[C@@H](CCCNC(=N)N)C(N)=O)C(C)C [compound 22] (H-H[Aib]EGTFTSDV[Aib]SYLEGQAAKEFIAWLVKGR-NH2; N-terminus assumed)	118	–
CC[C@H](C)[C@H](NC(=O)[C@](C)(Cc1ccccc1)NC(=O)[C@H](CCC(=O)O)NC(=O)[C@](C)(CCCCN)NC(=O)[C@H](C)NC(=O)[C@H](C)NC(=O)[C@H](CCC(=O)O)NC(=O)CNC(=O)[C@H](CCC(=O)O)NC(=O)[C@H](CC(C)C)NC(=O)[C@](C)(Cc1ccccc1)NC(=O)[C@H](CO)NC(=O)[C@](C)(CO)NC(=O)[C@@H](NC(=O)[C@H](CC(=O)O)NC(=O)[C@H](CCC(=O)O)NC(=O)[C@@H](NC(=O)[C@](C)(Cc1ccccc1)NC(=O)[C@H](CO)NC(=O)CNC(=O)[C@H](CCC(=O)O)NC(=O)C(C)(C)NC(=O)[C@@H](N)Cc1c[nH]cn1)[C@@H](C)O)C(C)C)C(=O)N[C@@H](C)C(=O)N[C@@](C)(Cc1ccccc1)C(=O)N[C@H](C(=O)N[C@H](C(=O)N[C@@](C)(CCCCN)C(=O)NCC(=O)NCC(N)=O)C(C)C)C(C)C [compound 28] (H-H[Aib]EGS[αMeF]TEDV[αMeS]S[αMeF]LEGEAA[αMeK]E[αMeF]IA[αMeF]VV[αMeK]GG-NH2; N-terminus assumed)	4620	4700
CC[C@H](C)[C@H](NC(=O)[C@](C)(Cc1ccccc1)NC(=O)[C@H](CCC(=O)O)NC(=O)[C@](C)(CCCCN)NC(=O)[C@H](C)NC(=O)[C@H](C)NC(=O)[C@H](CCC(=O)O)NC(=O)CNC(=O)[C@H](CCC(=O)O)NC(=O)[C@H](CC(C)C)NC(=O)[C@](C)(Cc1ccccc1)NC(=O)[C@H](CO)NC(=O)[C@](C)(CO)NC(=O)[C@@H](NC(=O)[C@H](CC(=O)O)NC(=O)[C@@H](NC(=O)[C@@H](NC(=O)[C@](C)(Cc1ccccc1)NC(=O)[C@H](CO)NC(=O)CNC(=O)[C@H](CCC(=O)O)NC(=O)C(C)(C)NC(=O)[C@@H](N)Cc1c[nH]cn1)[C@@H](C)O)[C@@H](C)O)C(C)C)C(=O)N[C@@H](C)C(=O)N[C@@](C)(Cc1ccccc1)C(=O)N[C@H](C(=O)N[C@H](C(=O)N[C@@](C)(CCCCN)C(=O)NCC(=O)NCC(N)=O)C(C)C)C(C)C [compound 29] (H-H[Aib]EGS[αMeF]TTDV[αMeS]S[αMeF]LEGEAA[αMeK]E[αMeF]IA[αMeF]VV[αMeK]GG-NH2)	801	–

Reference: patent publication US20210221866A1, “PROTEASE-RESISTANT LIPIDATED GLP-1 ANALOGS” (MEDIMMUNE LIMITED, priority 2015, published 2021)
